Measured values as given in US8859026B2, “Method for reducing methoxypyrazines in grapes and grape products” (Brock University, priority 2009, dated 2014).
Read-outs that look alike come from different tables or passages of the source.

Legend:
[1] = target: T1, rat OBP1F (rat OBP variant 1F), recombinant (Rattus norvegicus, UniProt P08937); test: 1-AMA fluorescence binding assay, rat OBP-1F
T1 construct: made in house; host or cells: Pichia pastoris (vector pPIC9; recombinant strain provided by J.-C; Pernollet, INRA)
T1 sequence (P08937 16-172): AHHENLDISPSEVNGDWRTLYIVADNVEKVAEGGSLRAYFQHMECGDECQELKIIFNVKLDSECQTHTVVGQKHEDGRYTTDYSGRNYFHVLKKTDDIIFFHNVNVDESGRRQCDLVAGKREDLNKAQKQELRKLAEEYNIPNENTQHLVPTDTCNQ
Method: (§1) The excitation wavelength of 290 nm was used and fluorescence emission intensities were monitored at 504 nm, 483 nm and 486 nm for rat OBP1F, piglet OBP and mouse MUPII respectively.
(§2) Fluorescence ligand binding experiments were performed on a Photon Technology International (London, Canada) Quanta Master Model QM2001 fluorometer at room temperature (19-20° C.), using 1 cm light path quartz cuvettes (Hellma). Slit width of 2 nm was used for excitation and emission for assaying a proteins except ratOBP1F, for which excitation and emission slit width of 6 nm was used.
(§3) Binding curves with 1-AMA were obtained by titrating protein (2 μM) in 50 mM sodium phosphate, pH 7.2 with ligand (0-50 uM, prepared gravimetrically as a 1 mM stock solution in 10% v/v methanol). To examine dependence of binding on pH, fluorescence spectra was measured in 50 mM citrate phosphate solutions at pH 3.0, 4.0 and 5.0. Fluorescence of 1-AMA was excited at 290 nm and emission was scanned from 450 to 550 nm.
(§4) Dissociation constants were calculated from a plot of fluorescence intensity against total ligand concentration fitted with non linear regression using Prism 3.02 (GraphPad Software Inc., La Jolla, Calif.).

[2] = target: T2, piglet OBP (pIOBP), Genbank AF436848, Uniprot Q8WMH1-1, SEQ ID NO: 3 (codon optimized) / SEQ ID NO: 4 (non-optimized), recombinant (Sus scrofa, UniProt P81245); test: 1-AMA fluorescence binding assay, piglet OBP; set-up: species or system pig (piglet/prepubertal)
T2 construct: S. cerevisiae alpha-mating factor secretion signal (pPIC9) (N); made in house; host or cells: Pichia pastoris GS115 (vector pPIC9)
T2 sequence (P81245 with tags, fused parts or gaps): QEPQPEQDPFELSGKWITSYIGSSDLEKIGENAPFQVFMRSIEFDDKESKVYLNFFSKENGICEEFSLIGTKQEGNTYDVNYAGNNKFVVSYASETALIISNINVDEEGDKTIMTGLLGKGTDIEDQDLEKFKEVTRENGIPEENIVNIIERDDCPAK
Description: as §1
(§5) cDNA sequence encoding mature piglet OBP (Genbank AF436848) and the mouse MUPII (Genbank AJ309921) were designed for heterologous expression in the methylotrophic yeast P. pastoris as follows: at the 5′ end of coding sequences, native signal peptide sequences were removed and replaced with XhoI (CTC GAG ([SEQ ID NO: 1]) and prepro sequence of the S. cerevisiae α-mating factor (AAA AGA [SEQ ID NO:2]). A stop codon and an EcoRI restriction site were added at the 3′ terminus. The sequences were then optimized for G+C content and preferred codon usage in P. pastoris. Modified coding sequences were synthesized and cloned in frame with the α-mating factor secretion signal into the pPIC9 expression vector between the XhoI and EcoRI sites (GenScript Corp., Piscataway, N.J.). Further information about the protein sequences is provided below:
Uniprot ID Q8WMH1-1, Genbank AF436848. *chain comprises 158 residues *differs from adult isoform/variant by an additional lysine residue at the C terminal end. Tissue source for cloning and binding: vomeronasal organ, but the isomer is also found in both vomeronasal and nasal mucosa.
as §2, §3, §4

rat OBP-1F = details: 1-AMA; Briand et al. 2000 (21); cited from earlier work
[3] = target: adult porcine OBP isoform; details: 1-AMA; Paolini et al. 1999 (26), Ramoni et al. 2007 (27); cited from earlier work
[4] = target: T3, mouse MUPII (mMUPII), Genbank AJ309921, Uniprot P11589, SEQ ID NO: 5, recombinant (Mus musculus, UniProt P11589); test: 1-AMA fluorescence binding assay, mouse MUPII
T3 construct: no tag mentioned
T3 sequence (P11589 19-180): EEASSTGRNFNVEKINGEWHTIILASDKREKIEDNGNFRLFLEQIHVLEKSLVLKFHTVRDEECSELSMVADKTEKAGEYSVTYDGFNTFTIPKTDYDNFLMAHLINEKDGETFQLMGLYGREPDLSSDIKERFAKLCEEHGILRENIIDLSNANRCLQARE
Description: as §1, §5
3. mouse MUPII (MUPIIa Genbank AJ309921, MUP BL1 gene, Uniprot ID P11589)
as §2, §3, §4

[5] = target: T1, rat OBP1F (rat OBP variant 1F), recombinant; test: Competitive displacement of 1-AMA, rat OBP-1F; format: binding; details: pH 7.2
Method: (§6) Competitive binding assays were done with 2 uM protein pre equilibrated with five fold 1-AMA concentration (10 uM). Fluorescence decay of the protein/1-AMA complex is expressed as a ratio of initial and final fluorescence against the total competitor concentration: (I−Imin)/(Io−Imin) where Io=fluorescence intensity of the protein/1-AMA complex, Imin=fluorescence intensity at saturation, and I=fluorescence intensity at a given competitor concentration.
as §2
(§7) The interaction of odorants with AMA complex was examined by monitoring the decrease in fluorescence intensity of protein/1-AMA complex upon the addition of competitor compounds.
(§8) In competitive binding assays, 1-AMA (10 μM) was equilibrated with protein (2 μM) at pH 7.2 50 mM sodium phosphate buffer and pH 3.0 50 mM citrate phosphate buffer, and titrated with increasing concentrations of odorants (0-100 μM) solubilized in 10% v/v methanol.
(§9) The affinity of OBPs for odorants was estimated by plotting the decrease of intensity of 1-AMA fluorescence at the emission maximum, (22). Odorant concentrations causing fluorescence decay to half-maximal intensity (IC50 values) were determined from the plot of (I−Imin)/(I0−Imin) against the competitor concentration; I0 is the maximum of fluorescence intensity of the protein/1-AMA complex; I is the fluorescence intensity after addition of an aliquot of competitor, and Imin the fluorescence intensity at saturating concentration of the competitor.

[6] = target: T2, piglet OBP (pIOBP), Genbank AF436848, Uniprot Q8WMH1-1, SEQ ID NO: 3 (codon optimized) / SEQ ID NO: 4 (non-optimized), recombinant; test: Competitive displacement of 1-AMA, piglet OBP; format: binding, pig (piglet/prepubertal)
Method: as §6, §2, §7, §8, §9

rOBP-1F = details: cited from earlier work
[7] = target: mMUPII (mouse major urinary protein isoform II); details: cited from earlier work
pOBP (adult porcine OBP) = details: cited from earlier work
rat OBP = details: Nespoulous et al 2004; read-out: apparent Kd; cited from earlier work
[8] = target: T3, mouse MUPII (mMUPII), Genbank AJ309921, Uniprot P11589, SEQ ID NO: 5, recombinant; test: Competitive displacement of 1-AMA, mouse MUPII; format: binding; details: for IC50: displacement of 1-AMA, 2 uM protein, 10 uM 1-AMA
Method: as §6, §2, §7, §8, §9

piglet OBP = target: T4, piglet OBP (Sus scrofa, UniProt P81245); test: Competitive fluorescent binding assay: displacement of 1-AMA from piglet OBP by odorants IPMP and IBMP; set-up: species or system porcine; details: for Kd: calculated from IC50, read-out: Kd for piglet OBP
T4 construct: made in house; host or cells: Pichia pastoris GS115 (pPIC9, alpha-mating factor secretion signal)
T4 sequence (P81245 with tags, fused parts or gaps): T2 sequence (P81245 with tags, fused parts or gaps)
Method: as §7, §8, §9

[9] = test system: pOBP, adult porcine OBP isoform; details: isothermal calorimetry, Burova et al., 1999, cited from earlier work

For `Nc1cccc2cc3ccccc3cc12` [1-AMA, 1-aminoanthracene], the saturable binding ([1]; pH 3.0) was “saturable binding curve was not detected”, the Kd ([1]; pH 5.0) was 1700 nM and the Kd ([1]; pH 7.2) was 1640 nM. The Kd ([2]; pH 3.0) was 4300 nM, the “decrease in binding affinity compared with pH 7.2” value (“decrease in binding affinity” for short) ([2]; pH 3.0) was 3.4 fold and the “maximal binding capacity compared with pH 7.2” value ([2]; pH 3.0) was “approximately halved”. For the same compound, the Kd ([2]; pH 4.0) was 2660 nM, the “decrease in binding affinity” value ([2]; pH 4.0) was 2 fold and the Kd ([2]; pH 5.0) was 1450 nM. The Kd ([2]; pH 7.2) was 1260 nM, the Kd (rat OBP-1F) was 600 nM and the Kd [3] was 1200 to 1300 nM. For the same compound, the Kd ([4]; pH 3.0) was 3480 nM, the Kd ([4]; pH 4.0) was 1970 nM and the Kd ([4]; pH 5.0) was 1850 nM. The Kd ([4]; pH 7.2) was 490 nM, the “binding capacity compared with pH 7.2” value ([4]; pH 3.0) was “less than halved” and the “decrease in binding affinity” value ([4]; pH 3.0) was 7 fold. The “decrease in binding affinity” value ([4]; pH 4.0) was “about 4 fold” and the “decrease in binding affinity” value ([4]; pH 5.0) was “about 4 fold”.

With `COc1nccnc1CC(C)C` [IBMP, 2-isobutyl-3-methoxypyrazine] the Kd ([5]; calculated from IC50) was 43 nM, the IC50 ([5]; displacement of 1-AMA, 2 uM protein, 10 uM 1-AMA) was 250 nM and the “binding to rOBP-1F more strongly than to mMUPII” value [5] was ~20 fold. The “binding to rOBP-1F more strongly than to pIOBP” value [5] was “about 10 fold”, the “displacement of 1-AMA fluorescence” value [5] was “complete displacement” and the Kd [6] was 1000 nM. The displacement of fluorescence ([6]; pH 3.0) was “complete displacement”, the “displacement of 1-AMA fluorescence” value ([6]; pH 7.2) was “complete displacement” and the Kd (rOBP-1F) was 69 nM. The Kd [7] was 940 nM, the Kd (pOBP (adult porcine OBP)) was 500 to 900 nM and the Kd (rat OBP) was 69 nM. The Kd ([8]; calculated from IC50, pH 3.0, read-out: Kd) was 1080 nM, the Kd ([8]; calculated from IC50, pH 7.2, read-out: Kd) was 480 nM and the IC50 ([8]; pH 3.0) was 3410 nM. For the same compound, the IC50 ([8]; pH 7.2) was 8070 nM, the displacement of fluorescence ([8]; pH 3.0) was “complete displacement” and the Kd ([8]; pH 3.0, read-out: apparent Kd) was 1000 nM. For the same compound, the “displacement of 1-AMA fluorescence” value ([8]; pH 7.2) was “complete displacement”, the Kd ([8]; pH 7.2, read-out: apparent Kd) was 500 nM and the IC50 (piglet OBP; pH 3.0) was 3650 nM. For the same compound, the “affinity for pIOBP, more strongly than IPMP” value (piglet OBP; pH 3.0) was 1.6 fold, the Kd (piglet OBP; pH 3.0) was 1470 nM and the IC50 (piglet OBP; pH 7.2) was 6860 nM. For the same compound, the “affinity for pIOBP, more strongly than IPMP” value (piglet OBP; pH 7.2) was “about 5 fold”, the Kd (piglet OBP; pH 7.2) was 940 nM and the “molar binding stoichiometry n” value ([9]; pH 3.5) was 0.417. The “molar binding stoichiometry n” value ([9]; pH 4.1) was 1.080, the “affinity to IBMP” value ([9]; pH 6.6, pH 4.1 and pH 3.5) was “remained relatively unchanged” and the “molar binding stoichiometry n” value ([9]; pH 6.6) was 1.220.
